In ChEMBL document CHEMBL3885861, “Open TG-GATES”:

Organism: Rattus norvegicus
Assay: Open TG-GATES - Regimen: Daily Repeat
Type: toxicity, organism-based, Sprague-Dawley
Design: regimen Daily Repeat, gender Male, age 6 weeks
Details: in vivo, po, route gavage; for Bas / Eos / Fbg / Hb / Ht / Lym / MCV / Mono / Neu / PT / Plat / RBC / Ret / WBC / APTT / MCH / MCHC: tissue Blood; for KIDNEY_L / KIDNEY_R / KIDNEY_TOTAL: tissue Kidney; for LIVER: tissue Liver; for ALP / ALT / AST / BUN / CRE / DBIL / GLC / IP / K / LDH / Na / PL / RALB / TBIL / TC / TG / TP / gamma-GTP / Ca: tissue Plasma
[1] = 300 mg/kg, 72 h, dose level Middle, time 3 day
[2] = 300 mg/kg, […], dose level Middle, time 7 day
[3] = 300 mg/kg, […], dose level Middle, time 14 day
[4] = 300 mg/kg, […], dose level Middle, time 28 day
[5] = 1000 mg/kg, 72 h, dose level High, time 3 day
[6] = 1000 mg/kg, […], dose level High, time 7 day
[7] = 1000 mg/kg, […], dose level High, time 14 day
[8] = 1000 mg/kg, […], dose level High, time 28 day

## O=C(O)c1cn(C2CC2)c2cc(N3CCNCC3)c(F)cc2c1=O [CIPROFLOXACIN]
[1]
  Bas: 0%
  Eos: 1%
  Fbg: 217 mg/dL
  Hb: 13 g/dL
  Ht: 38.7%
  Lym: 78.4%
  MCV: 63.5 fL
  Mono: 6%
  Neu: 14.4%
  PT: 12.4 s
  Plat: 103.1 x10_4/uL
  RBC: 609 x10_4/ul
  Ret: 6.9%
  WBC: 87 x10_2/uL
  KIDNEY_L: 0.9 g
  KIDNEY_R: 0.9 g
  KIDNEY_TOTAL: 1.8 g
  LIVER: 8.6 g
  ALP: 998 IU/L
  ALT: 37.8 IU/L
  AST: 68.4 IU/L
  BUN: 16.4 mg/dL
  CRE: 0.5 mg/dL
  DBIL: 0.014 mg/dL
  GLC: 182 mg/dL
  IP: 9.1 mg/dL
  K: 5 meq/L
  LDH: 81 IU/L
  Na: 140.4 meq/L
  PL: 148.8 mg/dL
  RALB: 3.8 g/dL
  TBIL: 0.3 mg/dL
  TC: 91 mg/dL
  TG: 49.4 mg/dL
  TP: 5.8 g/dL
  gamma-GTP: 2.2 IU/L
[2]
  TERMINAL_BW: 237.8 g
  APTT: 16 s
  Bas: 0%
  Eos: 0.6%
  Fbg: 218.5 mg/dL
  Hb: 13.2 g/dL
  Ht: 39.7%
  Lym: 80.4%
  MCH: 21.4 pg
  MCHC: 33.4%
  MCV: 64 fL
  Mono: 4.8%
  Neu: 14%
  PT: 12.4 s
  Plat: 98.1 x10_4/uL
  RBC: 620.2 x10_4/ul
  Ret: 6.7%
  WBC: 128.7 x10_2/uL
  KIDNEY_L: 1 g
  KIDNEY_R: 1 g
  KIDNEY_TOTAL: 2.1 g
  LIVER: 10.8 g
  ALP: 917.6 IU/L
  AST: 66.4 IU/L
  BUN: 20 mg/dL
  CRE: 0.5 mg/dL
  Ca: 11.4 mg/dL
  DBIL: 0.004 mg/dL
  GLC: 173.8 mg/dL
  IP: 9 mg/dL
  K: 4.9 meq/L
  LDH: 65.2 IU/L
  Na: 141.6 meq/L
  PL: 160.8 mg/dL
  RALB: 4 g/dL
  TBIL: 0.3 mg/dL
  TC: 90 mg/dL
  TG: 86.6 mg/dL
  TP: 5.8 g/dL
  gamma-GTP: 1.2 IU/L
[3]
  TERMINAL_BW: 282.8 g
  APTT: 16.4 s
  Bas: 0%
  Eos: 1%
  Fbg: 251 mg/dL
  Hb: 13.9 g/dL
  Ht: 41.6%
  Lym: 83.4%
  MCH: 20.4 pg
  MCHC: 33.4%
  MCV: 61.2 fL
  Mono: 5%
  Neu: 10.6%
  PT: 10 s
  Plat: 117.4 x10_4/uL
  RBC: 680.8 x10_4/ul
  Ret: 6.4%
  WBC: 162 x10_2/uL
  KIDNEY_L: 1.1 g
  KIDNEY_R: 1.1 g
  KIDNEY_TOTAL: 2.3 g
  LIVER: 12.3 g
  ALP: 973.2 IU/L
  ALT: 31.6 IU/L
  AST: 59.2 IU/L
  BUN: 20.4 mg/dL
  CRE: 0.6 mg/dL
  Ca: 11 mg/dL
  DBIL: 0.008 mg/dL
  GLC: 184.8 mg/dL
  IP: 7.8 mg/dL
  K: 4.8 meq/L
  LDH: 83.4 IU/L
  Na: 139 meq/L
  PL: 160 mg/dL
  RALB: 4 g/dL
  TBIL: 0.3 mg/dL
  TG: 105.8 mg/dL
  TP: 6 g/dL
  gamma-GTP: 2.8 IU/L
[4]
  TERMINAL_BW: 378.4 g
  APTT: 16.7 s
  Bas: 0%
  Eos: 0.8%
  Fbg: 245.2 mg/dL
  Ht: 44%
  Lym: 83.2%
  MCH: 19.3 pg
  MCHC: 33.2%
  MCV: 58.1 fL
  Mono: 5%
  Neu: 10.8%
  Plat: 100 x10_4/uL
  RBC: 756.8 x10_4/ul
  Ret: 3.2%
  WBC: 123.6 x10_2/uL
  KIDNEY_L: 1.3 g
  KIDNEY_R: 1.3 g
  KIDNEY_TOTAL: 2.6 g
  LIVER: 16 g
  ALP: 655 IU/L
  ALT: 33.8 IU/L
  AST: 59.4 IU/L
  BUN: 19.8 mg/dL
  CRE: 0.4 mg/dL
  DBIL: 0.004 mg/dL
  GLC: 180.8 mg/dL
  IP: 7.7 mg/dL
  K: 4.4 meq/L
  LDH: 102.2 IU/L
  Na: 140.6 meq/L
  PL: 172 mg/dL
  RALB: 4.1 g/dL
  TBIL: 0.3 mg/dL
  TC: 82.6 mg/dL
  TG: 184.6 mg/dL
  TP: 6.6 g/dL
  gamma-GTP: 1 IU/L
[5]
  TERMINAL_BW: 203.7 g
  APTT: 18.7 s
  Bas: 0%
  Eos: 1%
  Fbg: 222 mg/dL
  Hb: 12.8 g/dL
  Ht: 38.4%
  Lym: 83.2%
  MCH: 21.2 pg
  MCHC: 33.4%
  Mono: 6%
  Neu: 10%
  PT: 12.3 s
  Plat: 101.1 x10_4/uL
  RBC: 603.4 x10_4/ul
  Ret: 6%
  WBC: 121.3 x10_2/uL
  KIDNEY_L: 0.9 g
  KIDNEY_R: 1 g
  KIDNEY_TOTAL: 1.9 g
  LIVER: 9.6 g
  ALP: 962.6 IU/L
  ALT: 39 IU/L
  AST: 65.2 IU/L
  BUN: 16.8 mg/dL
  CRE: 0.5 mg/dL
  Ca: 11.2 mg/dL
  DBIL: 0.004 mg/dL
  GLC: 183.2 mg/dL
  IP: 9.4 mg/dL
  K: 4.9 meq/L
  LDH: 143.2 IU/L
  Na: 140.6 meq/L
  PL: 139.2 mg/dL
  RALB: 3.8 g/dL
  TBIL: 0.2 mg/dL
  TC: 86 mg/dL
  TP: 5.7 g/dL
  gamma-GTP: 1.4 IU/L
[6]
  TERMINAL_BW: 228.1 g
  APTT: 16 s
  Bas: 0%
  Eos: 0.8%
  Fbg: 231.8 mg/dL
  Hb: 13.5 g/dL
  Ht: 40.4%
  Lym: 81.2%
  MCH: 21.1 pg
  MCHC: 33.5%
  MCV: 63 fL
  Mono: 5.4%
  Neu: 12.8%
  Plat: 106.3 x10_4/uL
  RBC: 640.8 x10_4/ul
  Ret: 6.4%
  WBC: 154.8 x10_2/uL
  KIDNEY_L: 1 g
  KIDNEY_R: 1 g
  KIDNEY_TOTAL: 2 g
  LIVER: 10.5 g
  ALP: 850.4 IU/L
  AST: 64 IU/L
  BUN: 21.2 mg/dL
  CRE: 0.5 mg/dL
  Ca: 11.5 mg/dL
  DBIL: 0 mg/dL
  GLC: 182.4 mg/dL
  IP: 9.6 mg/dL
  K: 5.1 meq/L
  LDH: 96.8 IU/L
  Na: 141 meq/L
  PL: 158.8 mg/dL
  RALB: 3.8 g/dL
  TBIL: 0.2 mg/dL
  TC: 86 mg/dL
  TG: 90.2 mg/dL
  TP: 5.8 g/dL
  gamma-GTP: 1.6 IU/L
[7]
  TERMINAL_BW: 267.6 g
  APTT: 16.2 s
  Bas: 0%
  Eos: 0.8%
  Fbg: 255.2 mg/dL
  Hb: 14.3 g/dL
  Ht: 43%
  Lym: 82.8%
  MCH: 20.4 pg
  MCHC: 33.2%
  MCV: 61.6 fL
  Mono: 4.4%
  Neu: 12.4%
  PT: 10.2 s
  Plat: 97.3 x10_4/uL
  RBC: 699.2 x10_4/ul
  Ret: 5.7%
  WBC: 139.4 x10_2/uL
  KIDNEY_L: 1.1 g
  KIDNEY_R: 1.1 g
  KIDNEY_TOTAL: 2.2 g
  LIVER: 11 g
  ALP: 871.8 IU/L
  AST: 61.4 IU/L
  BUN: 22.8 mg/dL
  CRE: 0.6 mg/dL
  DBIL: 0.03 mg/dL
  GLC: 182.6 mg/dL
  IP: 7.8 mg/dL
  K: 4.8 meq/L
  LDH: 171.8 IU/L
  Na: 139.2 meq/L
  PL: 169 mg/dL
  RALB: 4 g/dL
  TBIL: 0.2 mg/dL
  TC: 92 mg/dL
  TP: 6.1 g/dL
  gamma-GTP: 1.8 IU/L
[8]
  TERMINAL_BW: 381.8 g
  Bas: 0%
  Eos: 1%
  Fbg: 248 mg/dL
  Hb: 14.7 g/dL
  Lym: 85%
  MCH: 19.5 pg
  MCHC: 33.5%
  MCV: 58.2 fL
  Mono: 3.4%
  Neu: 10.8%
  Plat: 110.7 x10_4/uL
  RBC: 757.8 x10_4/ul
  Ret: 3.5%
  WBC: 156.8 x10_2/uL
  KIDNEY_L: 1.4 g
  KIDNEY_R: 1.4 g
  KIDNEY_TOTAL: 2.8 g
  LIVER: 15 g
  ALP: 690 IU/L
  ALT: 32.4 IU/L
  AST: 51.8 IU/L
  BUN: 19.4 mg/dL
  CRE: 0.4 mg/dL
  Ca: 11.2 mg/dL
  DBIL: 0.022 mg/dL
  GLC: 180.6 mg/dL
  IP: 7.5 mg/dL
  K: 4.4 meq/L
  LDH: 160.6 IU/L
  Na: 140.2 meq/L
  PL: 173 mg/dL
  RALB: 4.1 g/dL
  TBIL: 0.2 mg/dL
  TC: 96 mg/dL
  TG: 102 mg/dL
  TP: 6.6 g/dL
  gamma-GTP: 2.4 IU/L
